Laboratory results: patent publication US12319675B2 (Artax Biopharma Inc., priority 2018, dated 2025)

Assays:
[1] = Microsomal stability assay, human; format: in vitro ADME; conditions: human microsomes, read-out: Microsomal Stability (T1/2 min) Human
Experimental: (§1) Microsomal stability assays were performed using mouse, rat, and human […] according to methods well-known in the art. Microsomal stability results are shown in Table 2 for selected compounds of the invention. The compound numbers correspond to the compound numbers in Table 1. […] “N/A” indicates not assayed.

[2] = Microsomal stability assay, rat; format: in vitro ADME; conditions: rat microsomes, read-out: Microsomal Stability (T1/2 min) Rat
Experimental: as §1

[3] = biological target: Nck SH3 domain interaction with the proline rich sequence of TCR subunit CD3ε (Homo sapiens, UniProt P16333); assay: Competitive binding, biosensor with Interferometric Optical Detection Method (IODM); conditions: ratio of 1:1 between Nck SH3 domain and inhibitors; biotinylated CD3ε peptide on sensing surface
Experimental: Inhibition of Nck SH3 domain interaction with the proline rich sequence of TCR subunit CD3ε was measured by optical read-out of a biosensor based on the Interferometric Optical Detection Method (IODM), using established methods (WO 2010/026269; WO 2014/020159; Laguna, M. et al., Sensors, 2015, 15(8):19819-29; and Holgado, M. et al., Sensors, 2014, 14(2): 3675-89).
Briefly, a Biophotonic Cell (BICELL) based on Fabry-Perot interferometers was used as the photonic transducer. The BICELL was fabricated using SU8 in cyclopentanone according to known methods (e.g., Laguna, M. F. et al., Sensors, 2014, 14(4): 6695-6700). Cured film was then treated with 95% sulfuric acid for 10 seconds. Streptavidin was then immobilized on the sensing surface in phosphate buffered saline (PBS; pH 7.4) over 20 min at 37° C. followed by blocking of the surface with 5% skin milk in PBS (pH 7.4). Biotinylated CD3ε peptide (SEQ ID NO: 001) in PBS (pH 7.4) was incubated with the streptavidin coated film to biofunctionalize the sensing surface (20 min at 37° C.).
Competitive binding assays were performed to determine the affinity reaction of inhibitors. The screening was carried out using a ratio of 1:1 between Nck SH3 domain and inhibitors. The optical readout of the biosensor was accomplished by a Fourier transform visible-infrared (FT-VIS-IR) spectrometer. Competitive binding results are shown in Table 3 for selected compounds of the invention. The compound numbers correspond to the compound numbers in Table 1. Compounds having a designation of “A” provide an Increased Relative Optical Power (ΔIROP) of less than or equal to thirty percent (≤30%); compounds having a designation of “B” provide a ΔIROP of between thirty and fifty percent (>30% to ≤50%); compounds having a designation of “C” provide an ΔIROP of between fifty and seventy percent (>50% to ≤70%); and compounds having a designation of “D” provide a ΔIROP of greater than seventy percent (>70%).

[4] = Microsomal stability assay, mouse; format: in vitro ADME; conditions: mouse microsomes, read-out: Microsomal Stability (T1/2 min) Mouse
Experimental: as §1

Compound	half-life [1]	half-life [2]	ΔIROP (Increased Relative Optical Power) [3]	half-life [4]
O=C(C1=C(c2ccc(F)cc2)c2cc(OC(F)F)ccc2OC1)N1CCCC1 [Compound I-1]	< 10 min	< 10 min	C (an ΔIROP of between fifty and seventy percent (>50% to ≤70%))	< 10 min
CCNC(=O)C1=C(c2ccc(F)cc2)c2cc(OC(F)F)ccc2OC1 [Compound I-2]	10 to 30 min	< 10 min	C (an ΔIROP of between fifty and seventy percent (>50% to ≤70%))	< 10 min
CN(C)CCNC(=O)C1=C(c2ccc(F)cc2)c2cc(OC(F)F)ccc2OC1 [Compound I-4]	> 30 min	10 to 30 min	B (a ΔIROP of between thirty and fifty percent (>30% to ≤50%))	10 to 30 min
Fc1ccc(C2=C(CN3CCOCC3)COc3ccc(OC(F)F)cc32)cc1 [Compound I-5]	10 to 30 min	10 to 30 min	B (a ΔIROP of between thirty and fifty percent (>30% to ≤50%))	10 to 30 min
CCNCC1=C(c2ccc(F)cc2)c2cc(OC(F)F)ccc2OC1 [Compound I-6]	> 30 min	< 10 min	C (an ΔIROP of between fifty and seventy percent (>50% to ≤70%))	> 30 min
CCNC(=O)C1=C(c2ccc(F)cc2)c2cc(OC(F)(F)F)ccc2OC1 [Compound I-8]	> 30 min	< 10 min	B (a ΔIROP of between thirty and fifty percent (>30% to ≤50%))	< 10 min
CN1CCN(C(=O)C2=C(c3ccc(F)cc3)c3cc(OC(F)(F)F)ccc3OC2)CC1 [Compound I-9]	10 to 30 min	< 10 min	D (a ΔIROP of greater than seventy percent (>70%))	10 to 30 min
CN(C)CCNC(=O)C1=C(c2ccc(F)cc2)c2cc(OC(F)(F)F)ccc2OC1 [Compound I-10, N-(2-(dimethylamino)ethyl)-4-(4-fluorophenyl)-6-(trifluoromethoxy)-2H-chromene-3-carboxamide]	> 30 min	> 30 min	A (an Increased Relative Optical Power (ΔIROP) of less than or equal to thirty percent (≤30%))	> 30 min
Fc1ccc(C2=C(CN3CCCC3)COc3ccc(C(F)(F)F)cc32)cc1 [Compound I-17, 1-((4-(4-fluorophenyl)-6-(trifluoromethyl)-2H-chromen-3-yl)methyl)pyrrolidine]	> 30 min	10 to 30 min	C (an ΔIROP of between fifty and seventy percent (>50% to ≤70%))	> 30 min
CN1CCN(C(=O)C2=C(c3ccc(F)cc3)c3cc(Cl)ccc3OC2)CC1 [Compound I-25]	10 to 30 min	< 10 min	B (a ΔIROP of between thirty and fifty percent (>30% to ≤50%))	< 10 min
CN1CCN(C(=O)C2=C(c3ccc(F)cc3)c3cc(C(F)(F)F)ccc3OC2)CC1 [Compound I-26, (4-(4-fluorophenyl)-6-(trifluoromethyl)-2H-chromen-3-yl)(4-methylpiperazin-1-yl)methanone]	10 to 30 min	< 10 min	C (an ΔIROP of between fifty and seventy percent (>50% to ≤70%))	< 10 min
COc1ccc2c(c1)C(c1ccc(Cl)cc1)=C(C(=O)N1CCN(C)CC1)CO2 [Compound I-28]	< 10 min	< 10 min	D (a ΔIROP of greater than seventy percent (>70%))	< 10 min
COc1ccc2c(c1)C(c1ccc(C(F)(F)F)cc1)=C(C(=O)N1CCN(C)CC1)CO2 [Compound I-29]	< 10 min	10 to 30 min	B (a ΔIROP of between thirty and fifty percent (>30% to ≤50%))	< 10 min
